{
  "source": "ChEMBL document CHEMBL1201862",
  "about": "“PubChem BioAssay data set” (2004)",
  "assay_in_all_cases": "inhibition of tumour cell growth, NCI panel, 48 h",
  "key": {"[1]": {"test_system": "786-0"}, "[2]": {"test_system": "A498"}, "[3]": {"test_system": "A549"}, "[4]": {"test_system": "ACHN"}, "[5]": {"test_system": "BT-549"}, "[6]": {"test_system": "CAKI-1"}, "[7]": {"test_system": "COLO 205"}, "[8]": {"test_system": "DU-145"}, "[9]": {"test_system": "EKVX"}, "[10]": {"test_system": "HCC 2998"}, "[11]": {"test_system": "HCT-116"}, "[12]": {"test_system": "HCT-15"}, "[13]": {"test_system": "HOP-62"}, "[14]": {"test_system": "HOP-92"}, "[15]": {"test_system": "HT-29"}, "[16]": {"test_system": "Hs-578T"}, "[17]": {"test_system": "IGROV-1"}, "[18]": {"test_system": "K562"}, "[19]": {"test_system": "KM12"}, "[20]": {"test_system": "LOX IMVI"}, "[21]": {"test_system": "M14"}, "[22]": {"test_system": "MCF7"}, "[23]": {"test_system": "MDA-MB-231"}, "[24]": {"test_system": "MDA-MB-435"}, "[25]": {"test_system": "MDA-N"}, "[26]": {"test_system": "MOLT-4"}, "[27]": {"test_system": "Malme-3M"}, "[28]": {"test_system": "NCI-H23"}, "[29]": {"test_system": "NCI-H460"}, "[30]": {"test_system": "NCI-H522"}, "[31]": {"test_system": "NCI/ADR-RES"}, "[32]": {"test_system": "OVCAR-3"}, "[33]": {"test_system": "OVCAR-4"}, "[34]": {"test_system": "OVCAR-5"}, "[35]": {"test_system": "OVCAR-8"}, "[36]": {"test_system": "PC-3"}, "[37]": {"test_system": "RPMI-8226"}, "[38]": {"test_system": "SF-268"}, "[39]": {"test_system": "SF-295"}, "[40]": {"test_system": "SF-539"}, "[41]": {"test_system": "SK-MEL-28"}, "[42]": {"test_system": "SK-MEL-2"}, "[43]": {"test_system": "SK-MEL-5"}, "[44]": {"test_system": "SK-OV-3"}, "[45]": {"test_system": "SN12C"}, "[46]": {"test_system": "SNB-19"}, "[47]": {"test_system": "SNB-75"}, "[48]": {"test_system": "SR"}, "[49]": {"test_system": "SW-620"}, "[50]": {"test_system": "T47D"}, "[51]": {"test_system": "TK-10"}, "[52]": {"test_system": "U-251"}, "[53]": {"test_system": "UACC-257"}, "[54]": {"test_system": "UACC-62"}, "[55]": {"test_system": "UO-31"}},
  "note": "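Test compounds were applied to cells in 96-well plates for 48 hours at 5 doses. At the GI50, growth is halved.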 Calls of active or inactive are those of the source. Cut-off read from the data, not from the text of the source: active = GI50 up to about 1.1 µM and inactive = higher.",
  "data": [
    {"smiles": "CC(=O)N1CCOC12N=NC(C)(C)O2", "note": "(stereo not given)", "values": [
      {"measurement": "GI50", "setting": "[1]", "result": "> 100 µM (inactive)"},
      {"measurement": "GI50", "setting": "[2]", "result": "> 100 µM (inactive)"},
      {"measurement": "GI50", "setting": "[3]", "result": "> 100 µM (inactive)"},
      {"measurement": "GI50", "setting": "[4]", "result": "> 100 µM (inactive)"},
      {"measurement": "GI50", "setting": "[5]", "result": "> 100 µM (inactive)"},
      {"measurement": "GI50", "setting": "[6]", "result": "> 100 µM (inactive)"},
      {"measurement": "GI50", "setting": "[7]", "result": "> 100 µM (inactive)"},
      {"measurement": "GI50", "setting": "[8]", "result": "> 100 µM (inactive)"},
      {"measurement": "GI50", "setting": "[9]", "result": "> 100 µM (inactive)"},
      {"measurement": "GI50", "setting": "[10]", "result": "> 100 µM (inactive)"},
      {"measurement": "GI50", "setting": "[11]", "result": "> 100 µM (inactive)"},
      {"measurement": "GI50", "setting": "[12]", "result": "> 100", "unit": "µM"},
      {"measurement": "GI50", "setting": "[13]", "result": "> 100 µM (inactive)"},
      {"measurement": "GI50", "setting": "[14]", "result": "> 100 µM (inactive)"},
      {"measurement": "GI50", "setting": "[15]", "result": "> 100 µM (inactive)"},
      {"measurement": "GI50", "setting": "[16]", "result": "> 100 µM (inactive)"},
      {"measurement": "GI50", "setting": "[17]", "result": "> 100 µM (inactive)"},
      {"measurement": "GI50", "setting": "[18]", "result": "> 100 µM (inactive)"},
      {"measurement": "GI50", "setting": "[19]", "result": "> 100 µM (inactive)"},
      {"measurement": "GI50", "setting": "[20]", "result": "> 100 µM (inactive)"},
      {"measurement": "GI50", "setting": "[21]", "result": "> 100 µM (inactive)"},
      {"measurement": "GI50", "setting": "[22]", "result": "> 100 µM (inactive)"},
      {"measurement": "GI50", "setting": "[23]", "result": "> 100 µM (inactive)"},
      {"measurement": "GI50", "setting": "[24]", "result": "> 100 µM (inactive)"},
      {"measurement": "GI50", "setting": "[25]", "result": "> 100 µM (inactive)"},
      {"measurement": "GI50", "setting": "[26]", "result": "> 100 µM (inactive)"},
      {"measurement": "GI50", "setting": "[27]", "result": "> 100 µM (inactive)"},
      {"measurement": "GI50", "setting": "[28]", "result": "> 100 µM (inactive)"},
      {"measurement": "GI50", "setting": "[29]", "result": "> 100 µM (inactive)"},
      {"measurement": "GI50", "setting": "[30]", "result": "> 100 µM (inactive)"},
      {"measurement": "GI50", "setting": "[31]", "result": "> 100 µM (inactive)"},
      {"measurement": "GI50", "setting": "[32]", "result": "> 100 µM (inactive)"},
      {"measurement": "GI50", "setting": "[33]", "result": "> 100 µM (inactive)"},
      {"measurement": "GI50", "setting": "[34]", "result": "> 100 µM (inactive)"},
      {"measurement": "GI50", "setting": "[35]", "result": "> 100 µM (inactive)"},
      {"measurement": "GI50", "setting": "[36]", "result": "> 100 µM (inactive)"},
      {"measurement": "GI50", "setting": "[37]", "result": "> 100 µM (inactive)"},
      {"measurement": "GI50", "setting": "[38]", "result": "> 100 µM (inactive)"},
      {"measurement": "GI50", "setting": "[39]", "result": "> 100 µM (inactive)"},
      {"measurement": "GI50", "setting": "[40]", "result": "> 100 µM (inactive)"},
      {"measurement": "GI50", "setting": "[41]", "result": "> 100 µM (inactive)"},
      {"measurement": "GI50", "setting": "[42]", "result": "> 100 µM (inactive)"},
      {"measurement": "GI50", "setting": "[43]", "result": "> 100 µM (inactive)"},
      {"measurement": "GI50", "setting": "[44]", "result": "> 100 µM (inactive)"},
      {"measurement": "GI50", "setting": "[45]", "result": "> 100 µM (inactive)"},
      {"measurement": "GI50", "setting": "[46]", "result": "> 100 µM (inactive)"},
      {"measurement": "GI50", "setting": "[47]", "result": "> 100 µM (inactive)"},
      {"measurement": "GI50", "setting": "[48]", "result": "> 100 µM (inactive)"},
      {"measurement": "GI50", "setting": "[49]", "result": "> 100 µM (inactive)"},
      {"measurement": "GI50", "setting": "[50]", "result": "> 100 µM (inactive)"},
      {"measurement": "GI50", "setting": "[51]", "result": "> 100 µM (inactive)"},
      {"measurement": "GI50", "setting": "[52]", "result": "> 100 µM (inactive)"},
      {"measurement": "GI50", "setting": "[53]", "result": "> 100 µM (inactive)"},
      {"measurement": "GI50", "setting": "[54]", "result": "> 100 µM (inactive)"},
      {"measurement": "GI50", "setting": "[55]", "result": "> 100 µM (inactive)"}
    ]}
  ]
}
